Test results: ChEMBL document CHEMBL4477240, “Electron affinity of tricyclic, bicyclic, and monocyclic compounds containing cyanoenones correlates with their potency as inducers of a cytoprotective enzyme” (Bioorg Med Chem Lett, 2016)

Target: T1, Nuclear factor erythroid 2-related factor 2 (Mus musculus) (UniProt Q60795)
T1 sequence (whole entry): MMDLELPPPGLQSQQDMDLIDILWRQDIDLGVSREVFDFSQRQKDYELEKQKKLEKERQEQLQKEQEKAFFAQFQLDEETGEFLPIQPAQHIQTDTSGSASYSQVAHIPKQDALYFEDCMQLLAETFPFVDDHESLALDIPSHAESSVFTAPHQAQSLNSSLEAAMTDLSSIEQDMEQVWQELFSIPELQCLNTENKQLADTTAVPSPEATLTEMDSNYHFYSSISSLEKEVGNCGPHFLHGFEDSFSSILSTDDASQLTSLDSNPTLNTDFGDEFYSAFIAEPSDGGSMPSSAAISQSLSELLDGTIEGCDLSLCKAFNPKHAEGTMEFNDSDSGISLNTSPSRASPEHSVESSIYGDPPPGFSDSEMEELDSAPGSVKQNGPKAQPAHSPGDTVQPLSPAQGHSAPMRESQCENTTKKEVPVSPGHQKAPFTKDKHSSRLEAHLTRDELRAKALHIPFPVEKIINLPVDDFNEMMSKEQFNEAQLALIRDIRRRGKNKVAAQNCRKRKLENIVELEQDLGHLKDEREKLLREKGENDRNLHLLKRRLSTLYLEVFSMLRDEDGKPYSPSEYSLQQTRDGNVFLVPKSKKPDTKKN
Assay: Activation of Nrf2 in mouse Hepa-1c1c7 cells assessed as concentration required to double specific activity of NQO1 incubated for 48 hrs
Format: cell-based

Question: `CC1(C)C(=O)C(C#N)=C[C@]2(C)C3=CC(=O)C=C[C@]3(C)CC[C@@H]12` was tested. Which pCD did it give?
Answer: Its pCD is 6.8.

Question: With `C#C[C@]12C=C(C#N)C(=O)C=C1[C@@]1(C)C=C(C#N)C(=O)C(C)(C)[C@@H]1CC2` as the molecule, how does the pCD read?
Answer: Its pCD is 9.04.

Question: How did the pCD turn out when `CC[C@]12C=C(C#N)C(=O)C=C1[C@@]1(C)C=C(C#N)C(=O)C(C)(C)[C@@H]1CC2` was run?
Answer: Its pCD is 7.74.

Question: With `C#CC1(C=C)C=CC(=O)C(C#N)=C1` (configuration not stated) as the molecule, how does the pCD read?
Answer: The pCD was 7.7.

Question: With `C=CC1(C)C=CC(=O)C(C#N)=C1` (configuration not stated) as the molecule, how does the pCD read?
Answer: The pCD was 6.82.

Question: Which pCD does the source give for `C#CC12C=C(C#N)C(=O)C=C1CCC2` (configuration not stated) here?
Answer: Its pCD is 7.25.

Question: `C#CC1(C)C=CC(=O)C(C#N)=C1` (configuration not stated) was tested. Which pCD did it give?
Answer: Its pCD is 7.67.

Question: With `CC#C[C@]12C=C(C#N)C(=O)C=C1[C@@]1(C)C=C(C#N)C(=O)C(C)(C)[C@@H]1CC2` as the molecule, how does the pCD read?
Answer: The pCD was 8.12.

Question: For `C#CC12C=C(C#N)C(=O)C=C1C(C)(C)CC2` (configuration not stated), which pCD is on record?
Answer: Its pCD is 7.

Question: `CC1(C)C(=O)C(C#N)=C[C@]2(C)C3=CC(=O)C(C#N)=C[C@]3(C)CC[C@@H]12` was tested. Which pCD did it give?
Answer: Its pCD is 7.74.

Question: How did the pCD turn out when `C#CC1(CC)C=CC(=O)C(C#N)=C1` (configuration not stated) was run?
Answer: The pCD was 7.38.

Question: With `CC1(C)C=C(C#N)C(=O)C(C)(C)C1` as the molecule, how does the pCD read?
Answer: Its pCD is 5.72.

Question: How did the pCD turn out when `C#CC1(C#C)C=CC(=O)C(C#N)=C1` was run?
Answer: Its pCD is 6.74.

Question: For `C=C[C@]12C=C(C#N)C(=O)C=C1[C@@]1(C)C=C(C#N)C(=O)C(C)(C)[C@@H]1CC2`, which pCD is on record?
Answer: The pCD was 7.52.

Question: With `CC#CC1(C)C=CC(=O)C(C#N)=C1` (configuration not stated) as the molecule, how does the pCD read?
Answer: The pCD was 7.48.

Question: `C#CC1(C)C=C(C#N)C(=O)CC1` (configuration not stated) was tested. Which pCD did it give?
Answer: The pCD was 7.

Question: `CC1(C)C=CC(=O)C(C#N)=C1` was tested. Which pCD did it give?
Answer: The pCD was 6.82.
